Measured values reported in PubChem BioAssay AID248 (DTP/NCI, 2004).
Several values for one entry are separate records, joined by “and”; a condition that tells them apart may be missing. Identical values can stand only once. Inconclusive results and toxic doses are left out.

Test system: L1210 leukemia ip in BDF1 mice, survival T/C
Experiment: NCI In Vivo Anticancer Drug Screen. Data for tumor model L1210 Leukemia (intraperitoneal) in B6D2F1 (BDF1) mice
Conditions: higher = longer survival
Summary of the method: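 Survival endpoint. Drug-treated group vs vehicle group, expressed as T divided by C. Tumor passaged by transplantation.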

Question: Which results are given for `NC(C/[N+]([O-])=N/O)C(=O)O` (stereo not given)?
Answer: T/C (endpoint: mean survival time, dose: 6.25 mg/kg/injection, schedule: Q01DX009 (ip), vehicle: saline): 117 % of control and 118 % of control; T/C (endpoint: mean survival time, dose: 8.0 mg/kg/injection, schedule: Q03HX016 (ip), vehicle: saline): 111 % of control; T/C (endpoint: mean survival time, dose: 8.0 mg/kg/injection, schedule: Q03HX024 (ip), vehicle: saline): 113 % of control; T/C (endpoint: mean survival time, dose: 12.5 mg/kg/injection, schedule: Q01DX009 (ip), vehicle: saline): 117 % of control and 122 % of control and 123 % of control; T/C (endpoint: mean survival time, dose: 16.0 mg/kg/injection, schedule: Q03HX008 (ip), vehicle: saline): 111 % of control; T/C (endpoint: mean survival time, dose: 16.0 mg/kg/injection, schedule: Q03HX016 (ip), vehicle: saline): 116 % of control; T/C (endpoint: mean survival time, dose: 16.0 mg/kg/injection, schedule: Q03HX024 (ip), vehicle: saline): 118 % of control; T/C (endpoint: mean survival time, dose: 20.0 mg/kg/injection, schedule: Q01DX009 (ip), vehicle: saline): 118 % of control; T/C (endpoint: mean survival time, dose: 25.0 mg/kg/injection, schedule: Q01DX001 (ip), vehicle: carboxymethylcellulose (CMC)): 112 % of control; T/C (endpoint: mean survival time, dose: 25.0 mg/kg/injection, schedule: Q01DX009 (ip), vehicle: saline): 120 % of control and 123 % of control; T/C (endpoint: mean survival time, dose: 30.0 mg/kg/injection, schedule: Q01DX009 (ip), vehicle: saline with Tween-80): 111 % of control; T/C (endpoint: mean survival time, dose: 32.0 mg/kg/injection, schedule: Q01DX009 (ip), vehicle: saline): 116 % of control; T/C (endpoint: mean survival time, dose: 32.0 mg/kg/injection, schedule: Q01DX009 (sc), vehicle: saline): 117 % of control; T/C (endpoint: mean survival time, dose: 32.0 mg/kg/injection, schedule: Q03HX008 (ip), vehicle: saline): 116 % of control; T/C (endpoint: mean survival time, dose: 32.0 mg/kg/injection, schedule: Q03HX024 (ip), vehicle: saline): 121 % of control; T/C (endpoint: mean survival time, dose: 40.0 mg/kg/injection, schedule: Q01DX009 (ip), vehicle: saline): 121 % of control; T/C (endpoint: mean survival time, dose: 44.0 mg/kg/injection, schedule: Q01DX009 (ip), vehicle: saline with Tween-80): 108 % of control; T/C (endpoint: mean survival time, dose: 50.0 mg/kg/injection, schedule: Q01DX001 (ip), vehicle: carboxymethylcellulose (CMC)): 106 % of control; T/C (endpoint: mean survival time, dose: 54.0 mg/kg/injection, schedule: Q04DX003 (ip), vehicle: saline with Tween-80): 110 % of control; T/C (endpoint: mean survival time, dose: 64.0 mg/kg/injection, schedule: Q01DX001 (oral), vehicle: saline): 107 % of control; T/C (endpoint: mean survival time, dose: 64.0 mg/kg/injection, schedule: Q01DX009 (ip), vehicle: saline): 123 % of control; T/C (endpoint: mean survival time, dose: 64.0 mg/kg/injection, schedule: Q01DX009 (oral), vehicle: saline): 92 % of control; T/C (endpoint: mean survival time, dose: 64.0 mg/kg/injection, schedule: Q01DX009 (sc), vehicle: saline): 118 % of control; T/C (endpoint: mean survival time, dose: 64.0 mg/kg/injection, schedule: Q03HX008 (ip), vehicle: saline): 116 % of control; T/C (endpoint: mean survival time, dose: 64.0 mg/kg/injection, schedule: Q03HX024 (ip), vehicle: saline): 122 % of control; T/C (endpoint: mean survival time, dose: 64.0 mg/kg/injection, schedule: Q04DX003 (ip), vehicle: saline): 117 % of control; T/C (endpoint: mean survival time, dose: 64.0 mg/kg/injection, schedule: Q08DX002 (ip), vehicle: saline): 117 % of control; T/C (endpoint: mean survival time, dose: 67.0 mg/kg/injection, schedule: Q01DX009 (ip), vehicle: saline with Tween-80): 104 % of control; T/C (endpoint: mean survival time, dose: 100.0 mg/kg/injection, schedule: Q01DX001 (ip), vehicle: carboxymethylcellulose (CMC)): 110 % of control; T/C (endpoint: mean survival time, dose: 100.0 mg/kg/injection, schedule: Q04DX003 (ip), vehicle: saline with Tween-80): 123 % of control; T/C (endpoint: mean survival time, dose: 128.0 mg/kg/injection, schedule: Q01DX001 (ip), vehicle: saline): 118 % of control; T/C (endpoint: mean survival time, dose: 128.0 mg/kg/injection, schedule: Q01DX001 (oral), vehicle: saline): 103 % of control; T/C (endpoint: mean survival time, dose: 128.0 mg/kg/injection, schedule: Q01DX001 (sc), vehicle: saline): 104 % of control; T/C (endpoint: mean survival time, dose: 128.0 mg/kg/injection, schedule: Q01DX009 (ip), vehicle: saline): 108 % of control; T/C (endpoint: mean survival time, dose: 128.0 mg/kg/injection, schedule: Q01DX009 (sc), vehicle: saline): 102 % of control; T/C (endpoint: mean survival time, dose: 128.0 mg/kg/injection, schedule: Q03HX008 (ip), vehicle: saline): 119 % of control; T/C (endpoint: mean survival time, dose: 128.0 mg/kg/injection, schedule: Q03HX016 (ip), vehicle: saline): 122 % of control; T/C (endpoint: mean survival time, dose: 128.0 mg/kg/injection, schedule: Q04DX003 (ip), vehicle: saline): 114 % of control; T/C (endpoint: mean survival time, dose: 128.0 mg/kg/injection, schedule: Q08DX002 (ip), vehicle: saline): 112 % of control; T/C (endpoint: mean survival time, dose: 150.0 mg/kg/injection, schedule: Q01DX009 (ip), vehicle: saline with Tween-80): 92 % of control; T/C (endpoint: mean survival time, dose: 160.0 mg/kg/injection, schedule: Q01DX009 (ip), vehicle: saline): 116 % of control; T/C (endpoint: mean survival time, dose: 187.0 mg/kg/injection, schedule: Q04DX003 (ip), vehicle: saline with Tween-80): 156 % of control; T/C (endpoint: mean survival time, dose: 200.0 mg/kg/injection, schedule: Q01DX001 (ip), vehicle: carboxymethylcellulose (CMC)): 124 % of control; T/C (endpoint: mean survival time, dose: 200.0 mg/kg/injection, schedule: Q01DX003 (ip), vehicle: sodium bicarbonate): 164 % of control; T/C (endpoint: mean survival time, dose: 200.0 mg/kg/injection, schedule: Q01DX009 (ip), vehicle: saline): 102 % of control; T/C (endpoint: mean survival time, dose: 256.0 mg/kg/injection, schedule: Q01DX001 (ip), vehicle: saline): 117 % of control; T/C (endpoint: mean survival time, dose: 256.0 mg/kg/injection, schedule: Q01DX001 (oral), vehicle: saline): 103 % of control; T/C (endpoint: mean survival time, dose: 256.0 mg/kg/injection, schedule: Q01DX001 (sc), vehicle: saline): 108 % of control; T/C (endpoint: mean survival time, dose: 256.0 mg/kg/injection, schedule: Q01DX009 (ip), vehicle: saline): 95 % of control; T/C (endpoint: mean survival time, dose: 256.0 mg/kg/injection, schedule: Q08DX002 (ip), vehicle: saline): 121 % of control; T/C (endpoint: mean survival time, dose: 266.0 mg/kg/injection, schedule: Q04DX003 (ip), vehicle: saline with Tween-80): 115 % of control; T/C (endpoint: mean survival time, dose: 400.0 mg/kg/injection, schedule: Q01DX003 (ip), vehicle: sodium bicarbonate): 172 % of control; T/C (endpoint: mean survival time, dose: 400.0 mg/kg/injection, schedule: Q04DX003 (ip), vehicle: Klucel (hydroxypropylcellulose) (HPC)): 151 % of control; T/C (endpoint: mean survival time, dose: 512.0 mg/kg/injection, schedule: Q01DX001 (ip), vehicle: saline): 117 % of control; T/C (endpoint: mean survival time, dose: 512.0 mg/kg/injection, schedule: Q01DX001 (oral), vehicle: saline): 97 % of control; T/C (endpoint: mean survival time, dose: 512.0 mg/kg/injection, schedule: Q01DX001 (sc), vehicle: saline): 106 % of control; T/C (endpoint: mean survival time, dose: 600.0 mg/kg/injection, schedule: Q01DX003 (ip), vehicle: sodium bicarbonate): 172 % of control; T/C (endpoint: mean survival time, dose: 600.0 mg/kg/injection, schedule: Q04DX003 (ip), vehicle: saline with Tween-80): 121 % of control; T/C (endpoint: mean survival time, dose: 600.0 mg/kg/injection, schedule: Q04DX003 (ip), vehicle: saline): 161 % of control and 159 % of control; T/C (endpoint: mean survival time, dose: 800.0 mg/kg/injection, schedule: Q01DX003 (ip), vehicle: sodium bicarbonate): 175 % of control; T/C (endpoint: mean survival time, dose: 800.0 mg/kg/injection, schedule: Q04DX003 (ip), vehicle: Klucel (hydroxypropylcellulose) (HPC)): 106 % of control; T/C (endpoint: mean survival time, dose: 800.0 mg/kg/injection, schedule: Q04DX003 (ip), vehicle: saline with Tween-80): 154 % of control; T/C (endpoint: mean survival time, dose: 1000.0 mg/kg/injection, schedule: Q01DX003 (ip), vehicle: sodium bicarbonate): 96 % of control; T/C (endpoint: mean survival time, dose: 1000.0 mg/kg/injection, schedule: Q04DX003 (ip), vehicle: saline with Tween-80): 92 % of control; T/C (endpoint: mean survival time, dose: 1024.0 mg/kg/injection, schedule: Q01DX001 (sc), vehicle: saline): 110 % of control; T/C (endpoint: mean survival time, dose: 1024.0 mg/kg/injection, schedule: Q04DX003 (ip), vehicle: saline): 150 % of control; T/C (endpoint: median survival time, dose: 8.0 mg/kg/injection, schedule: Q01DX009 (ip), vehicle: saline): 105 % of control; T/C (endpoint: median survival time, dose: 8.0 mg/kg/injection, schedule: Q01DX009 (oral), vehicle: saline): 100 % of control; T/C (endpoint: median survival time, dose: 8.0 mg/kg/injection, schedule: Q01DX009 (sc), vehicle: saline): 105 % of control; T/C (endpoint: median survival time, dose: 16.0 mg/kg/injection, schedule: Q01DX009 (oral), vehicle: saline): 100 % of control; T/C (endpoint: median survival time, dose: 16.0 mg/kg/injection, schedule: Q01DX009 (sc), vehicle: saline): 100 % of control and 105 % of control; T/C (endpoint: median survival time, dose: 32.0 mg/kg/injection, schedule: Q01DX009 (oral), vehicle: saline): 111 % of control; T/C (endpoint: median survival time, dose: 32.0 mg/kg/injection, schedule: Q01DX009 (sc), vehicle: saline): 111 % of control; T/C (endpoint: median survival time, dose: 64.0 mg/kg/injection, schedule: Q01DX009 (ip), vehicle: saline): 100 % of control and 111 % of control; T/C (endpoint: median survival time, dose: 64.0 mg/kg/injection, schedule: Q04DX003 (ip), vehicle: saline): 105 % of control; T/C (endpoint: median survival time, dose: 64.0 mg/kg/injection, schedule: Q04DX003 (oral), vehicle: saline): 100 % of control; T/C (endpoint: median survival time, dose: 100.0 mg/kg/injection, schedule: Q04DX003 (ip), vehicle: saline): 116 % of control and 100 % of control; T/C (endpoint: median survival time, dose: 128.0 mg/kg/injection, schedule: Q01DX009 (ip), vehicle: saline): 100 % of control; T/C (endpoint: median survival time, dose: 128.0 mg/kg/injection, schedule: Q01DX009 (sc), vehicle: saline): 105 % of control; T/C (endpoint: median survival time, dose: 128.0 mg/kg/injection, schedule: Q04DX003 (oral), vehicle: saline): 100 % of control; T/C (endpoint: median survival time, dose: 200.0 mg/kg/injection, schedule: Q04DX003 (ip), vehicle: saline): 111 % of control; T/C (endpoint: median survival time, dose: 400.0 mg/kg/injection, schedule: Q04DX003 (ip), vehicle: saline): 116 % of control; T/C (endpoint: median survival time, dose: 1000.0 mg/kg/injection, schedule: Q04DX003 (ip), vehicle: saline): 155 % of control; T/C (endpoint: median survival time, dose: 1024.0 mg/kg/injection, schedule: Q04DX003 (ip), vehicle: saline): 111 % of control; T/C (endpoint: median survival time, dose: 1024.0 mg/kg/injection, schedule: Q04DX003 (sc), vehicle: saline): 94 % of control
